Reference: patent US7435438B1, “Disinfectant and method of use” (Pure BioScience, priority 2003, dated 2008)

What was measured:
[1] = test system: Trichophyton Mentagrophytes ATCC 9533; details: 30 ppm
[2] = test system: Legionella in biofilm and planktonic samples
[3] = test system: Staphylococcus aureus ATCC 6538
[4] = test system: dermal lesions both contaminated and infected with gram negative and gram positive bacteria
[5] = test system: HIV type1, Strain HTLV = IIIB
[6] = test system: Staphylococcus aureus (MRSA) ATCC 700698; details: 30 ppm
[7] = test system: Salmonella cholerasuis ATCC 10708
[8] = test system: heterotrophic bacteria (HBC) in biofilm and planktonic phases
[9] = test system: listeria monocytogenes ATCC 11543
[10] = test system: Listeria monocytogenes ATCC 19111; details: 30 ppm
[11] = test system: L. pneumophila
[12] = test system: Influenza A ATCC VR-544, Hong Kong Strain
[13] = test system: Rhinovirus R37 ATCC VR-1147, Strain 151-1
[14] = test system: total bacteria present; details: approximately 5 ppm for 5 seconds, drip dry 10 seconds, rinse in 0.1 ppm for 5 seconds; fruits, vegetables, fish and shrimp
[15] = test system: Enterococcus facium (VRE) ATCC 700221; details: 30 ppm
[16] = test system: pathogenic bacterial populations, biofilms
[17] = test system: E. coli 0157 ATCC 43888
[18] = test system: SARS
[19] = test system: Herpes simplex type I ATCC VR-733, Strain F(1)
[20] = test system: Proprionibacterium acnes ATCC 6921; details: 30 ppm
[21] = test system: Pseudomonas aeruginosa ATCC 15422
[22] = test system: Enterococcus faecium ATCC 6569
[23] = test system: E. coli ATCC 11229
[24] = test system: Poliovirus type 2 ATCC VR-1002, Strain Lansing
[25] = equine, observed repeatedly during the study

## silver dihydrogen citrate
[1]
  exposure after which the fungus is killed: 10 min
[2]
  killing of Legionella (in words): killed Legionella
[3]
  KILL TIME: 30-seconds
  effectiveness as hard surface disinfectant with direct food contact: effective
[4]; equine
  efficacy for irrigating deep wounds and abscesses: very efficacious
  granulation / fibrosis: promote healthy granulation without excessive fibrosis
[4]; [25]
  healing time: Decreased healing time
  scar formation: reduction in scar formation
[4]; equine, wet dressings or spray
  performance on dermal lesions compared to available disinfectant products on the market: superior performance
[4]; flushed with the disinfectant
  healing and draining of deep wounds closed with drains: rapid healing time and reduced draining
[4]; preliminary results
  uterine flush for bacterial and/or fungal/yeast infection: very promising
[5]
  KILL TIME: 30-second
  effectiveness as hard surface disinfectant with direct food contact: effective
[6]
  KILL TIME: 2-minute
[7]
  KILL TIME: 30-seconds
  effectiveness as hard surface disinfectant with direct food contact: effective
[8]
  reduction of heterotrophic bacteria: did not significantly reduce
[9]
  effectiveness as hard surface disinfectant with direct food contact: effective
[10]
  KILL TIME: 30-seconds
[11]
  result of ASTM E645-97 test: passed
[12]
  KILL TIME: 10-minute
  effectiveness as hard surface disinfectant with direct food contact: effective
[13]
  KILL TIME: 10-minute
  effectiveness as hard surface disinfectant with direct food contact: effective
[14]
  total bacteria present eliminated: 99.99%
[15]
  KILL TIME: 2-minute
[16]
  mortality in shrimp raising tanks: decreasing
[16]; shrimp raising tanks
  pathogenic bacterial populations, biofilms: significantly reducing
[17]
  KILL TIME: 2-minute
  effectiveness as hard surface disinfectant with direct food contact: effective
[18]
  effectiveness as hard surface disinfectant with direct food contact: will be effective
[19]
  KILL TIME: 1-minute
  effectiveness as hard surface disinfectant with direct food contact: effective
[20]
  KILL TIME: 15-seconds
[21]
  KILL TIME: 30-seconds
  effectiveness as hard surface disinfectant with direct food contact: effective
[22]
  effectiveness as hard surface disinfectant with direct food contact: effective
[23]
  effectiveness as hard surface disinfectant with direct food contact: effective
[24]
  KILL TIME: 10-minute
  effectiveness as hard surface disinfectant with direct food contact: effective
